Measured values reported in patent publication US8772265B2, “Water soluble curcumin compositions for use in anti-cancer and anti-inflammatory therapy” (Universite Libre de Bruxelles, priority 2008, dated 2014).
Values after ≈ are worked out from the molar mass of the structure shown. Like-named read-outs stand apart in the source and are kept apart here.

What was measured:
[1] = Solubilities in water (20° C.); format: physicochemical
Excerpt: The compound according to the invention allows therefore to increase the solubility of curcumin derivatives in aqueous solutions which in turn enables IV administrations and/or increases their bioavailability. The table below presents the solubilities of the various intermediates.

[2] = Influence of different cyclodextrins on curcumin solubility; format: physicochemical; conditions: FIGS. 11a and 11b
[3] = system: A549; test: MTT test, overall cell growth, A549; format: cell-based, human; conditions: read-out: IC50 A549
Procedure: (§1) MTT tests were performed in order to rapidly, i.e. within 5 days, measure the effect of compounds of this invention on the overall cell growth. […] The amount of formazan obtained at the end of the experiment, measured by means of a spectrophotometer, is directly proportional to the number of living cells. Optical density determination thus enabled a quantitative measurement of the effect of the investigated compounds as compared to the control condition (untreated cells) and/or to other reference compounds. Six human cancer cell lines described in Table 5 were used in the following MTT tests. These cancer cell lines cover six histological cancer types, being prostate, glioma, pancreas, colon, lung, and breast cancers. To perform the assay, cells were allowed to grow in 96-well micro-wells with a flat bottom with an amount of 100 μl of cell suspension per well with 1,000 to 4,000 cells/well depending on the cell type used. Each cell line was seeded in its appropriate culture medium. […] Each experiment was performed in sextaplicates. […] The micro-wells were subsequently incubated during 3 hours at 37° C. and centrifuged at 400 g during 10 minutes. MTT was removed and formazan crystals formed were dissolved in 100 μl DMSO. The micro-wells were shaken for 5 minutes and read on a spectrophotometer at wavelengths of 570 nm (maximal formazan absorbance). For each experimental condition, the mean optical density was calculated, allowing the determination of the percentage of remaining living cells in comparison to the control.

[4] = system: PC3; test: MTT test, overall cell growth, PC3; format: cell-based, human; conditions: read-out: IC50 PC3
Procedure: as §1

[5] = system: U-373MG; test: MTT test, overall cell growth, U-373MG; format: cell-based, human; conditions: read-out: IC50 U-373MG
Procedure: as §1

[6] = system: MCF-7; test: MTT test, overall cell growth, MCF-7; format: cell-based, human; conditions: read-out: IC50 MCF-7
Procedure: as §1

[7] = system: LoVo; test: MTT test, overall cell growth, LoVo; format: cell-based, human; conditions: read-out: IC50 LoVo
Procedure: as §1

[8] = system: BxPC3; test: MTT test, overall cell growth, BxPC3; format: cell-based, human; conditions: read-out: IC50 BxPC3
Procedure: as §1

[9] = system: SC-VII mouse head and neck cancer cells; test: SC-VII mouse head and neck orthotopic cancer model, survival; format: in vivo; conditions: IP, NDS27 20 mg/kg 3 times per day, 5 days per week, 3 weeks, cisplatin 5 mg/kg 1 time per week, control vehicle
Procedure: To test the in vivo anti-cancer activity of the compound according to the invention, we made use of the SC-VII mouse head and neck orthotopic cancer model. SC-VII mouse head and neck cancer cells were cultivated in conventional culture medium containing supplementation in foetal calf serum and antibiotics (penicillin/streptomycin and gentamycin). 500 000 cancer cells were grafted in a serum free culture medium (50 μl) into the floor of the mouth of each mouse. 5 days after the graft, the 44 animals were divided into four groups of 11 mice. The treatments were as follows: • Group 1: mice treated with the vehicle alone (HP-beta-CD—L-Lysine solution) • Group 2: mice treated with cisplatin administered IP at the dosis of 5 mg/kg, 1 time per week during 3 weeks • Group 3: mice treated IP with the NDS27 compound according to the invention administered 3 times per day, 5 days per week during 3 weeks at the doses of 20 mg/kg • Group 4: mice treated with a combination of both treatments described for groups 2 and 3.
Mice were sacrificed when they lost 20% of their weight or when tumour reached 500 mm^2. Survival of the animals was followed and is illustrated in FIG. 8.

[10] = system: PC3; test: Cellular imaging (phase-contrast videomicroscopy), PC3; format: cell-based, human; parameters: key to effect on cell morphology / effect on cell migration: +++: high effect: cell migration of most cells is drastically altered for most of the duration of the film; ++: medium effect: compound altering cell migration of an important proportion of the cells although less drastically; +: low effect: compound affecting cell migration of a small part of the cell population, or only for a limited part of the 72 h incubation; −: no effect: as compared to the control conditions, no difference is observed; conditions: PC3, 10 μM; for GGRtreated/GGRcontrol: 72 h, global growth ratio; for effect on cell morphology: characterized by the same way as migration
Procedure: (§2) Cellular imaging relied on the use of computer-assisted phase-contrast microscopy making possible to film the behavior of living cells in culture dishes for several days. […] The experiment was conducted in quadruplicates. The behaviour of the cells, in terms of morphology, growth/death and migration were thus investigated. The analysis of the films was performed by two operators, working independently. The effect on cell migration was characterized as +++ (high effect: cell migration of most cells is drastically altered for most of the duration of the film), ++ (medium effect: compound altering cell migration of an important proportion of the cells although less drastically), + (low effect: compound affecting cell migration of a small part of the cell population, or only for a limited part of the 72 h incubation), - (no effect: as compared to the control conditions, no difference is observed). The effect on cell morphology was characterized by the same way. The effect on the overall growth was measured by counting the number of cells on the first (0 h) and the last image (72 h) of each film. The global growth ratio (GGR) was then deduced by dividing the number of cells on the last image by the number of cells on the first image. The ratio […], was further calculated thereby obtaining a value that describes the effect of compounds of the present invention on the overall cell growth.

[11] = system: U-373 MG; test: Cellular imaging (phase-contrast videomicroscopy), U-373 MG; format: cell-based, human; conditions: 10 μM, 72 h, global growth ratio
Procedure: as §2

[12] = system: isolated neutrophils stimulated by phorbol myristate acetate (PMA); test: ROS production by PMA-stimulated isolated neutrophils (chemiluminescence); format: cell-based; conditions: FIG. 16
Procedure: (§3) The ROS production and the release of MPO by activated neutrophils were measured by chemiluminescence and ELISA techniques, respectively (Franck et al., 2008, Physiol. Res. 57(4):577-87). The activity of purified MPO was measured by using an original method called […] (specific immune extraction followed by enzymatic detection) allowing the study of drug interaction with the enzyme without interferences of the medium (Franck et al., 2006, J Vet Diagn Invest, 18(4):326-34).

[13] = system: isolated neutrophils stimulated by phorbol myristate acetate (PMA); test: MPO release by activated neutrophils (ELISA); format: cell-based; conditions: FIG. 18
Procedure: as §3

[14] = system: purified MPO; test: Activity of purified MPO (SIEFED); format: biochemical; conditions: FIG. 17
Procedure: as §3

[15] = physchem; conditions: aqueous with cosolvent or surfactant or cyclodextrin

With `CC(O)COC[C@H]1O[C@@H]2O[C@H]3[C@H](O)[C@@H](O)[C@@H](O[C@H]4[C@H](O)[C@@H](O)[C@@H](O[C@H]5[C@H](O)[C@@H](O)[C@@H](O[C@H]6[C@H](O)[C@@H](O)[C@@H](O[C@H]7[C@H](O)[C@@H](O)[C@@H](O[C@H]8[C@H](O)[C@@H](O)[C@@H](O[C@H]1[C@H](O)[C@H]2O)O[C@@H]8COCC(C)O)O[C@@H]7COCC(C)O)O[C@@H]6COCC(C)O)O[C@@H]5COCC(C)O)O[C@@H]4COCC(C)O)O[C@@H]3COCC(C)O` (stereo partly drawn) [HP-beta-CD, hydroxypropyl-beta-cyclodextrin] the solubility [1] was 500 mg/mL (≈ 324 mM) and the “effect of the cyclodextrin on curcumin solubility” value [2] was “clearly increase the solubility of curcumin”.

In the case of `NCCCC[C@H](N)C(=O)O` [Lysine], the solubility ([1]; 20 °C, water) is reported as 640 mg/mL (≈ 4380 mM).

In the case of `COc1cc(CCC(=O)CC(=O)CCc2ccc(O)c(OC)c2)ccc1O` [Tetrahydrocurcumin, tetrahydrocurcumin], the IC50 ([3]; Homo sapiens, A549, 72 h) is reported as greater than 10 µM, the IC50 ([4]; Homo sapiens, PC-3, 72 h) is reported as greater than 10 µM and the IC50 ([5]; Homo sapiens, U373 MG, 72 h) is reported as greater than 10 µM. For the same molecule, the IC50 ([6]; Homo sapiens, MCF7, 72 h) was greater than 10 µM, the IC50 ([7]; Homo sapiens, LoVo, 72 h) was greater than 10 µM and the IC50 ([8]; Homo sapiens, BXPC-3, 72 h) was greater than 10 µM.

In the case of `N.N.[Cl][Pt][Cl]` [cisplatin], the “T/C index (ratio of median survival of treated mice to control group)” value [9] is reported as 163%.

With `COc1cc(/C=C/C(=O)CC(=O)/C=C/c2ccc(O)c(OC)c2)ccc1O` [curcumin] the solubility ([1]; Water (20° C.), read-out: solubility) was roughly 0.0003 mg/mL (≈ 0.000814 mM), the IC50 ([3]; Homo sapiens, A549, MTT, 72 hours, lung cancer cell line) was greater than 10 µM and the IC50 ([4]; Homo sapiens, PC-3, MTT, 72 hours, prostate cancer cell line) was greater than 10 µM. The IC50 ([5]; Homo sapiens, U373 MG, MTT, 72 hours, glioma cell line) was 8.1 µM, the IC50 ([6]; Homo sapiens, MCF7, MTT, 72 hours, breast cancer cell line) was greater than 10 µM and the IC50 ([7]; Homo sapiens, LoVo, MTT, 72 hours, colon cancer cell line) was 9.3 µM. The IC50 ([8]; Homo sapiens, BXPC-3, MTT, 72 hours, pancreas cancer cell line) was 9.5 µM, the GGRtreated/GGRcontrol [10] was 0.5 and the “effect on cell morphology” value ([10]; filmed 72 h) was “+”. For the same molecule, the GGRtreated/GGRcontrol [11] was 0.2, the “inhibitory effect on ROS production / release” value [12] was “dose-dependent inhibitory effects” and the “effect on MPO release by activated neutrophils” value [13] was “dose-dependent inhibitory effects”. The “inhibitory effect on purified MPO activity” value [14] was “dose-dependent inhibitory effects” and the solubility [15] was no more than 100 mM.

Curcumin Lysinate gave an IC50 ([3]; MTT, 72 hours, lung cancer cell line) greater than 10 µM, an IC50 ([4]; MTT, 72 hours, prostate cancer cell line) greater than 10 µM and an IC50 ([5]; MTT, 72 hours, glioma cell line) of 10 µM. It also gave an IC50 ([6]; MTT, 72 hours, breast cancer cell line) greater than 10 µM, an IC50 ([7]; MTT, 72 hours, colon cancer cell line) greater than 10 µM and an IC50 ([8]; MTT, 72 hours, pancreas cancer cell line) greater than 10 µM. For the same molecule, the GGRtreated/GGRcontrol [10] was 0.4, the “effect on cell migration” value ([10]; filmed 72 h) was “++” and the “effect on cell morphology” value ([10]; filmed 72 h) was “++”. For the same molecule, the GGRtreated/GGRcontrol [11] was 0.2, the “inhibitory effect on ROS production / release” value [12] was “dose-dependent inhibitory effects” and the “effect on MPO release by activated neutrophils” value [13] was “dose-dependent inhibitory effects”. The “inhibitory effect on purified MPO activity” value [14] was “dose-dependent inhibitory effects”.

“hydroxypropyl-beta-cyclodextrin complex of curcumin lysinate [NDS27]” gave a solubility [1] of 10 mg/mL.
